Reference: PubChem BioAssay AID330 (DTP/NCI, 2004)
“And” between values parts separate entries of the source, which are not always exact repeats. Identical values can stand only once. Toxic doses and inconclusive results are not listed.

Test system: P388 leukemia ip, CD2F1 mice, survival T/C
Assay: NCI In Vivo Anticancer Drug Screen. Data for tumor model P388 Leukemia (intraperitoneal) in CD2F1 (CDF1) mice
Conditions: endpoint: median survival time, higher = longer survival
Procedure, shortened: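 Mice carrying the transplanted tumor received test compound or vehicle. Survival was recorded in each group, and the value is the treated-group measurement divided by that of the vehicle-treated control group.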

[1] = dose: 12.5 mg/kg/injection, schedule: Q01DX005 (ip), vehicle: saline with Tween-80
[2] = dose: 50.0 mg/kg/injection, schedule: Q01DX005 (ip), vehicle: saline with Tween-80
[3] = dose: 200.0 mg/kg/injection, schedule: Q01DX005 (ip), vehicle: saline with Tween-80
[4] = dose: 100.0 mg/kg/injection, schedule: Q04DX003 (ip), vehicle: saline
[5] = dose: 200.0 mg/kg/injection, schedule: Q04DX003 (ip), vehicle: saline
[6] = dose: 400.0 mg/kg/injection, schedule: Q04DX003 (ip), vehicle: saline
[7] = dose: 1.56 mg/kg/injection, schedule: Q01DX005 (ip), vehicle: saline with Tween-80
[8] = dose: 6.25 mg/kg/injection, schedule: Q01DX005 (ip), vehicle: saline with Tween-80

For `NC(CSC(c1ccccc1)(c1ccccc1)c1ccc2ccccc2c1)C(=O)O` (stereo unspecified), the T/C (dose: 3.13 mg/kg/injection, schedule: Q01DX009 (ip), vehicle: saline with Tween-80) was 186 % of control, the T/C (dose: 3.13 mg/kg/injection, schedule: Q01DX009 (ip), vehicle: water) was 169 % of control and the T/C (dose: 6.25 mg/kg/injection, schedule: Q01DX009 (ip), vehicle: saline with Tween-80) was 198 % of control. For the same molecule, the T/C (dose: 6.25 mg/kg/injection, schedule: Q01DX009 (ip), vehicle: water) was 189 % of control, the T/C (dose: 12.5 mg/kg/injection, schedule: Q01DX009 (ip), vehicle: saline with Tween-80) was 261 % of control and the T/C (dose: 12.5 mg/kg/injection, schedule: Q01DX009 (ip), vehicle: water) was 216 % of control. The T/C (dose: 25.0 mg/kg/injection, schedule: Q01DX009 (ip), vehicle: saline with Tween-80) was 90 % of control and the T/C (dose: 25.0 mg/kg/injection, schedule: Q01DX009 (ip), vehicle: water) was 99 % of control.
`CCOC(=O)C(=CNc1cccc2c(O)cccc12)C(=O)OCC` was tested, and the T/C [1] was 90 % of control, the T/C (dose: 25.0 mg/kg/injection, schedule: Q01DX005 (ip), vehicle: saline with Tween-80) was 93 % of control and the T/C [2] was 97 % of control. For the same molecule, the T/C [3] was 95 % of control.
`O=C(Cc1ccc(C2=NCCN2)cc1[N+](=O)[O-])c1ccc(C2=NCCN2)cc1` was tested, and the T/C (dose: 0.39 mg/kg/injection, schedule: Q01DX005 (ip), vehicle: saline) was 97 % of control, the T/C (dose: 0.79 mg/kg/injection, schedule: Q01DX005 (ip), vehicle: saline) was 101 % of control and the T/C (dose: 1.56 mg/kg/injection, schedule: Q01DX005 (ip), vehicle: saline) was 101 % of control and 87 % of control. For the same molecule, the T/C (dose: 6.25 mg/kg/injection, schedule: Q01DX005 (ip), vehicle: saline) was 106 % of control and 87 % of control.
With `O=S(=O)(O)C(O)c1cccc(Cl)c1` (stereo unspecified) the T/C [4] was 100 % of control, the T/C [5] was 110 % of control and the T/C [6] was 103 % of control.
For `Cc1ccc(-n2cnc3c(N)nc(N)nc32)cc1`, the T/C [7] was 100 % of control, the T/C (dose: 3.13 mg/kg/injection, schedule: Q01DX005 (ip), vehicle: saline with Tween-80) was 108 % of control and the T/C [8] was 108 % of control and 112 % of control. For the same molecule, the T/C [1] was 115 % of control.
`S=P(NCCS)(N1CC1)N1CC1` was tested, and the T/C (dose: 100.0 mg/kg/injection, schedule: Q04DX003 (ip), vehicle: saline with Tween-80) was 109 % of control, the T/C (dose: 200.0 mg/kg/injection, schedule: Q04DX003 (ip), vehicle: saline with Tween-80) was 122 % of control and the T/C (dose: 400.0 mg/kg/injection, schedule: Q04DX003 (ip), vehicle: saline with Tween-80) was 91 % of control.
In the case of `Nc1ccn(C2OC(CCl)C(O)C2O)c(=O)n1` (stereo unspecified), the T/C (dose: 6.25 mg/kg/injection, schedule: Q01DX009 (ip), vehicle: Klucel (hydroxypropylcellulose) (HPC)) is reported as 101 % of control, the T/C (dose: 12.5 mg/kg/injection, schedule: Q01DX009 (ip), vehicle: Klucel (hydroxypropylcellulose) (HPC)) is reported as 106 % of control and the T/C (dose: 100.0 mg/kg/injection, schedule: Q01DX009 (ip), vehicle: Klucel (hydroxypropylcellulose) (HPC)) is reported as 172 % of control. For the same molecule, the T/C (dose: 100.0 mg/kg/injection, schedule: Q01DX009 (ip), vehicle: saline) was 154 % of control, the T/C (dose: 200.0 mg/kg/injection, schedule: Q01DX009 (ip), vehicle: Klucel (hydroxypropylcellulose) (HPC)) was 186 % of control and the T/C (dose: 200.0 mg/kg/injection, schedule: Q01DX009 (ip), vehicle: saline) was 164 % of control. The T/C (dose: 400.0 mg/kg/injection, schedule: Q01DX009 (ip), vehicle: saline) was 177 % of control.
`O=C1OC(O)C(Cl)=C1Cl` (stereo unspecified) was tested, and the T/C (dose: 0.79 mg/kg/injection, schedule: Q01DX005 (ip), vehicle: saline with Tween-80) was 111 % of control, the T/C [7] was 112 % of control and the T/C (dose: 3.12 mg/kg/injection, schedule: Q01DX005 (ip), vehicle: saline with Tween-80) was 114 % of control. For the same molecule, the T/C [8] was 120 % of control.
In the case of `O=C1/C(=C\c2ccc3c(c2)OCO3)SC(=S)N1CCCN1CCOCC1`, the T/C [2] is reported as 92 % of control, the T/C (dose: 100.0 mg/kg/injection, schedule: Q01DX005 (ip), vehicle: saline with Tween-80) is reported as 90 % of control and the T/C [3] is reported as 93 % of control.
`COC(=O)c1c(C(=O)c2ccccc2)nnn1-c1cccc(C(F)(F)F)c1` was tested, and the T/C (dose: 60.0 mg/kg/injection, schedule: Q01DX005 (ip), vehicle: Klucel + Tween-80) was 102 % of control, the T/C (dose: 120.0 mg/kg/injection, schedule: Q01DX005 (ip), vehicle: Klucel + Tween-80) was 103 % of control and the T/C (dose: 240.0 mg/kg/injection, schedule: Q01DX005 (ip), vehicle: Klucel + Tween-80) was 107 % of control.
`COc1ccc(C2CC(=O)N(c3nccc(C)n3)C(=O)C2)cc1` was tested, and the T/C [4] was 98 % of control, the T/C [5] was 99 % of control and the T/C [6] was 94 % of control.
